One data set relates to Penicillium italicum. The data set can be described thus: microbe, parasite or virus in culture. Format: functional. Conditions: CECT 2294, dose 50 mg/ml, time 24 hrs, read-out: DIZ.
For data set [1], the system named is Aspergillus fumigatus. Nature of the data set: microbe, parasite or virus in culture. Format: functional. The conditions noted are these: ATCC204305, dose 50 mg/ml, time 24 hrs, read-out: DIZ.
Data set [2] concerns Bacillus pumilus. The data set can be described thus: Antibacterial activity against Bacillus pumilus assessed as inhibition of bacterial growth by microdilution method. The format is functional. For orientation: Dilution methods test growth across graded concentrations, often in twofold steps.
Data set [3] has as its system Enterococcus faecalis. Nature of the data set: Antibacterial activity against […] assessed as inhibition of bacterial growth by microdilution method. The format is functional.
Data set [4] relates to Escherichia coli. The data set can be described thus: Antibacterial activity against Escherichia coli assessed as inhibition of bacterial growth by microdilution method. Format: functional.
Data set [5] relates to Enterobacter cloacae. The data set can be described thus: Antibacterial activity against Enterobacter cloacae assessed as inhibition of bacterial growth by microdilution method. The format is functional.
The test system of data set [6] is Aspergillus niger. Nature of the data set: Antifungal activity against Aspergillus niger assessed as inhibition of fungal growth by microdilution method. The format is functional.
For data set [7], the system named is Candida albicans. Nature of the data set: Antifungal activity against Candida albicans assessed as inhibition of fungal growth by microdilution method. The format is functional.
For data set [8], the system named is Bacillus pumilus. The data set can be described thus: Antibacterial activity against Bacillus pumilus assessed as inhibition of bacterial growth at MIC by microdilution method. The format is functional.
Data set [9] relates to Enterococcus faecalis. Nature of the data set: Antibacterial activity against […] assessed as inhibition of bacterial growth at MIC by microdilution method. The format is functional.
In data set [10] the test system is Enterobacter cloacae. Nature of the data set: Antibacterial activity against Enterobacter cloacae assessed as inhibition of bacterial growth at MIC by microdilution method. The format is functional.
Data set [11] concerns Aspergillus niger. The data set can be described thus: Antifungal activity against Aspergillus niger assessed as inhibition of fungal growth at MIC by microdilution method. The format is functional.
The test system of data set [12] is Candida albicans. Nature of the data set: Antifungal activity against Candida albicans assessed as inhibition of fungal growth at MIC by microdilution method. The format is functional.
In data set [13] the test system is Bacillus pumilus. The data set can be described thus: Antibacterial activity against Bacillus pumilus assessed as minimum bactericidal concentration by microdilution method. The format is functional.
The test system of data set [14] is Enterococcus faecalis. The data set can be described thus: Antibacterial activity against […] assessed as minimum bactericidal concentration by microdilution method. Format: functional.
Data set [15] concerns Enterobacter cloacae. The data set can be described thus: Antibacterial activity against Enterobacter cloacae assessed as minimum bactericidal concentration by microdilution method. The format is functional.
Data set [16] deals with Aspergillus niger. Nature of the data set: […] activity against Aspergillus niger assessed as […] by microdilution method. The format is functional.
The subject of data set [17] is Candida albicans. Nature of the data set: […] activity against Candida albicans assessed as […] by microdilution method. The format is functional.
The test system of data set [18] is Human immunodeficiency virus 1. Nature of the data set: Antiviral activity against HIV1 IIIB infected in human MT4 cells assessed as reduction in virus-induced cytopathic effect by MTT assay. The format is functional, organism-based. The conditions noted are these: Human immunodeficiency virus 1, IIIB. Background: Cytopathic effects are the visible damage that an infection or toxin causes in cultured cells.

For data set [19], the system named is Human immunodeficiency virus 2. The data set can be described thus: Antiviral activity against HIV2 ROD infected in human MT4 cells assessed as reduction in virus-induced cytopathic effect by MTT assay. Conditions: Human immunodeficiency virus 2, ROD. Format: functional, organism-based.
A short description of data set [20]: Cytotoxicity against human MT4 cells assessed as reduction in cell viability by MTT assay. Format: toxicity, cell-based. Background: Tetrazolium dyes change colour on reduction, which living cells bring about.
The nature of data set [21]: Selectivity index, ratio of CC50 for cytotoxicity against human MT4 cells to EC50 for antiviral activity against HIV1 IIIB infected in human MT4 cells. The format is toxicity, cell-based. The conditions noted are these: read-out: Selectivity Index.
The nature of data set [22]: Selectivity index, ratio of CC50 for cytotoxicity against human MT4 cells to EC50 for antiviral activity against HIV2 ROD infected in human MT4 cells. The conditions noted are these: read-out: Selectivity Index. Format: toxicity, cell-based.
For data set [23], the target named is Polyunsaturated fatty acid 5-lipoxygenase (Homo sapiens, UniProt P09917). Nature of the data set: Inhibition of 5-LOX (unknown origin) by colorimetric analysis.
Chain of Polyunsaturated fatty acid 5-lipoxygenase (P09917 whole entry): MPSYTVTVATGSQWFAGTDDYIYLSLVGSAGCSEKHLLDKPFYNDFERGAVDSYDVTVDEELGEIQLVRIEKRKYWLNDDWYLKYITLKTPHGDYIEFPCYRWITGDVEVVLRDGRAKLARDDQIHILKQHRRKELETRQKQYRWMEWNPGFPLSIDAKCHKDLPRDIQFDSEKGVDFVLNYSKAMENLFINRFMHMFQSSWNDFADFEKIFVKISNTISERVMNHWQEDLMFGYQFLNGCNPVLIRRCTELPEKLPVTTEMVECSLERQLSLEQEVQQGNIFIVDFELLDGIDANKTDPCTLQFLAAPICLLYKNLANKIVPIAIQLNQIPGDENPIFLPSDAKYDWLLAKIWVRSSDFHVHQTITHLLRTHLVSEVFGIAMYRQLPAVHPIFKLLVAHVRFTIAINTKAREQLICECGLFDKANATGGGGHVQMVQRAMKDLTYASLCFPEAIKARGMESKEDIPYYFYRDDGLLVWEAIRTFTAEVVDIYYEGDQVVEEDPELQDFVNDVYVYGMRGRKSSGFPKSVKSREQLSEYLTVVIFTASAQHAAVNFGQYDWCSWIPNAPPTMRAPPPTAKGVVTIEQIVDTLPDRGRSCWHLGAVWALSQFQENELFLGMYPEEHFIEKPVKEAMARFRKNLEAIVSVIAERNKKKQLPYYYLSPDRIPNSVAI
A further data set in a line: cells. The conditions noted are these: Homo sapiens, Macrophage.
In a further data set the target is Alpha-glucosidase (Saccharomyces cerevisiae S288c, UniProt P53341+P38158+P07265). Nature of the data set: Inhibition of Saccharomyces cerevisiae alpha-glucosidase assessed as decrease in release of p-nitrophenol using pNPG as substrate incubated for 10 mins by spectroscopic analysis. The format is protein assay.
Data set [24] concerns the target Alpha-glucosidase (Mus musculus). Nature of the data set: Inhibition of mouse alpha-glucosidase assessed as decrease in release of p-nitrophenol using pNPG as substrate preincubated for 10 mins followed by substrate addition and measured after 30 mins by spectroscopic analysis.
The test system of another data set is Clostridium tetani. Nature of the data set: Antibacterial activity against Clostridium tetani MTCC 449 assessed as bacterial growth inhibition by broth microdilution method. The format is functional.
Data set [25] deals with Escherichia coli. Nature of the data set: Antibacterial activity against Escherichia coli MTCC 443 assessed as bacterial growth inhibition by broth microdilution method. The format is functional.
The next data set relates to Salmonella typhimurium. The data set can be described thus: Antibacterial activity against Salmonella typhimurium MTCC 98 assessed as bacterial growth inhibition by broth microdilution method. Format: functional, Salmonella enterica subsp. enterica serovar Typhimurium. The conditions noted are these: Salmonella enterica.
For data set [26], the system named is Aspergillus fumigatus. The data set can be described thus: Antifungal activity against Aspergillus fumigatus MTCC 227 assessed as fungal growth inhibition by broth microdilution method. Format: functional.
Data set [27] has as its system Mycobacterium tuberculosis. Nature of the data set: Antitubercular activity against Mycobacterium tuberculosis H37Rv assessed as bacterial growth inhibition at 250 ug/ml. Format: functional.
Data set [28] deals with Mycobacterium tuberculosis. The data set can be described thus: Antitubercular activity against Mycobacterium tuberculosis H37Rv assessed as bacterial growth inhibition at 100 ug/ml. Format: functional.
The test system of a further data set is Micrococcus luteus. Nature of the data set: Antibacterial activity against Micrococcus luteus MTCC 2470 assessed as bacterial growth inhibition. The format is functional.
For data set [29], the system named is Bacillus subtilis. The data set can be described thus: Antibacterial activity against Bacillus subtilis MTCC 121 assessed as bacterial growth inhibition. The format is functional.
Data set [30] has as its system Staphylococcus aureus. The data set can be described thus: Antibacterial activity against Staphylococcus aureus MLS-16 MTCC 2940 assessed as bacterial growth inhibition. The format is functional.
The subject of data set [31] is Escherichia coli. Nature of the data set: Antibacterial activity against Escherichia coli MTCC 739 assessed as bacterial growth inhibition. Format: functional.
Another data set concerns Raoultella planticola. The data set can be described thus: Antibacterial activity against Raoultella planticola MTCC 530 assessed as bacterial growth inhibition. Format: functional. Conditions: Klebsiella planticola.
A further data set deals with Pseudomonas aeruginosa. The data set can be described thus: Antibacterial activity against Pseudomonas aeruginosa MTCC 2453 assessed as bacterial growth inhibition. Format: functional.
In data set [32] the test system is Staphylococcus aureus. The data set can be described thus: Antibacterial activity against Staphylococcus aureus MLS-16 MTCC 2940 assessed as minimum bactericidal concentration. The format is functional.
For data set [33], the system named is Staphylococcus aureus. Nature of the data set: Antibacterial activity against Staphylococcus aureus MTCC 96 assessed as minimum bactericidal concentration. The format is functional.
The test system of data set [34] is Bacillus subtilis. Nature of the data set: Antibacterial activity against Bacillus subtilis MTCC 121 assessed as minimum bactericidal concentration. The format is functional.
The subject of data set [35] is Streptococcus pneumoniae. Nature of the data set: Antibacterial activity against Streptococcus pneumoniae ATCC BAA-255/R6 assessed as diameter of inhibition zone at 50 mg/ml incubated for 24 hrs by paper disk diffusion method. Format: functional. Conditions: read-out: DIZ.
For data set [36], the system named is Staphylococcus aureus. Nature of the data set: Antibacterial activity against Staphylococcus aureus ATCC6538-P assessed as diameter of inhibition zone at 50 mg/ml incubated for 24 hrs by paper disk diffusion method. Conditions: read-out: DIZ. Format: functional.
The subject of data set [37] is Streptococcus pneumoniae. Nature of the data set: Antibacterial activity against Streptococcus pneumoniae ATCC BAA-255/R6 assessed as inhibition of bacterial growth incubated for 24 hrs by disk diffusion method. The format is functional.
Data set [38] can be described thus: Inhibition of Escherichia coli topoisomerase 4 assessed as reduction in decatenation.

≈ marks a conversion by molar mass, not a printed value.

Experimental findings from ChEMBL document CHEMBL5241112, “Insights into the recent progress in the medicinal chemistry of pyranopyrimidine analogs” (RSC Med Chem, 2022) are described below.

Usually MIC stands for the least concentration at which growth counts as inhibited. The EC50 is the concentration that produces a half-maximal response. The term CC50 denotes the concentration that lowers cell viability or growth by half. By IC50 is commonly meant the concentration at which inhibition is half-maximal. A word on the inhibition: it is the change of the read-out against control, counted positive when it falls.

`Clc1ccc(COC(Cn2ccnc2)c2ccc(Cl)cc2Cl)c(Cl)c1` (configuration not stated) [MICONAZOLE NITRATE]: the results for the zone of inhibition at 50000 µg/mL in the data set on Penicillium italicum and with Aspergillus fumigatus [1] were 17 mm and 19 mm, respectively.
`CCOC(=O)C1=C(N)OC2C(C(=O)N(c3ccc(C)cc3)C(=S)N2c2ccc(C)cc2)C1c1ccccc1` (configuration not stated): the MIC in the data set on Bacillus pumilus [2] stood at 31.2 µg/mL (≈ 59.1 µM); with Enterococcus faecalis [3], 15.6 µg/mL (≈ 29.6 µM); with Escherichia coli [4], 15.6 µg/mL (≈ 29.6 µM); in the data set on Enterobacter cloacae [5], 62.5 µg/mL (≈ 118 µM); in the data set on Aspergillus niger [6], 15.6 µg/mL; with Candida albicans [7], 31.2 µg/mL. Moreover, the “inhibition (INH)” value in the data set on Bacillus pumilus [8] is listed as 66.4%; in the data set with Enterococcus faecalis [9], 69.5%; with Enterobacter cloacae [10], 29.2%; in the data set on Aspergillus niger [11], 85.1%; in the data set with Candida albicans [12], 79.7%. Moreover, the MBC was 125 µg/mL (≈ 237 µM) in the data set on Bacillus pumilus [13]; 62.5 µg/mL (≈ 118 µM) with Enterococcus faecalis [14]; 62.5 µg/mL (≈ 118 µM) in the data set on Enterobacter cloacae [15]; 500 µg/mL (≈ 948 µM) in the data set with Aspergillus niger [16]; 62.5 µg/mL (≈ 118 µM) with Candida albicans [17].
`Cc1nc2c(c(=O)[nH]1)C(c1cccc3ccccc13)c1c(c3ccccc3oc1=O)O2` (configuration not stated): the EC50 in [18] and in [19] was 3.63 µg/mL (≈ 8.89 µM) each time. Moreover, the CC50 in data set [20] was 3.63 µg/mL (≈ 8.89 µM). Further, the selectivity ratio in [21] and in data set [22] was under 1 in each case.
For `N#CC1=C(NC[C@]2(O)O[C@H](O)[C@@H](O)[C@@H](O)[C@H]2O)Oc2[nH]c(=S)[nH]c(=O)c2C1c1ccc(Cl)cc1` (some centres not stated), the IC50 in data set [23] was 1.66 µM; in the data set “cells”, 3.23 µM.
As to `COc1cc(/C=C/C(=O)C2=C(/C=C/c3ccc(O)c(OC)c3)Oc3[nH]c(=O)[nH]c(=O)c3C2c2c(Cl)cccc2Cl)ccc1O` (configuration not stated), the IC50 is 27.6 µM on Alpha-glucosidase and 46.04 µM in data set [24].
Turning to `CCOC(=O)C1=C(N)Oc2c(c(=O)n(C)c(=O)n2C)C1c1c(C)nn(-c2ccccc2)c1-n1ccnc1` (configuration not stated), the MIC with Clostridium tetani is 100 µg/mL (≈ 199 µM); in the data set with Escherichia coli [25], 62.5 µg/mL (≈ 124 µM); with Salmonella typhimurium it was 100 µg/mL (≈ 199 µM); in the data set on Aspergillus fumigatus [26] it was 200 µg/mL (≈ 397 µM). In [27], the inhibition at 250 µg/mL was found to be 84%. In addition, the inhibition at 100 µg/mL in data set [28] is 30%.
With `Cc1ccc(C2c3c(Nc4cccc([N+](=O)[O-])c4)ncnc3Oc3c2c(=O)oc2ccccc32)cc1` (configuration not stated), the MIC in the data set with Micrococcus luteus is 15.6 µg/mL (≈ 32.6 µM); in the data set on Bacillus subtilis [29] it was 31.2 µg/mL (≈ 65.2 µM); in the data set on Staphylococcus aureus [30] it was 15.6 µg/mL (≈ 32.6 µM); in the data set on Escherichia coli [31], 15.6 µg/mL (≈ 32.6 µM); in the data set on Raoultella planticola, 15.6 µg/mL (≈ 32.6 µM); with Pseudomonas aeruginosa it was 15.6 µg/mL (≈ 32.6 µM). For the same compound, the MBC in the data set with Staphylococcus aureus [32], in the data set on Staphylococcus aureus [33] and with Bacillus subtilis [34] was 15.6 µg/mL (≈ 32.6 µM) each time.
For `Nc1nc(=O)[nH]c2c1C(c1ccc(Cl)cc1)C=C(c1cc3ccccc3oc1=O)O2` (configuration not stated), the results for the zone of inhibition at 50000 µg/mL in the data set with Streptococcus pneumoniae [35], with Staphylococcus aureus [36] and with Aspergillus fumigatus [1] were 10 mm, 18 mm and 10 mm, respectively. Besides, in the data set on Streptococcus pneumoniae [37], the MIC stood at 7.8 µg/mL (≈ 18.6 µM). Moreover, in data set [38], the IC50 was 0.237 µM.
